In patent publication US20100233249A1, “CONTRACEPTIVE METHODS AND COMPOSITIONS RELATED TO PROTEASOMAL INTERFERENCE” (priority 2003, published 2010):
“Also recorded” adds a separate entry of the source. Where a SMILES comes first, the peptide text is derived from it. The star is where a group is joined. Cbz = O=C(OCc1ccccc1)*

Tests used:
[1] = test system: zona-enclosed oocytes / boar spermatozoa; assay: Porcine in vitro fertilization of zona-enclosed (zona-intact) oocytes with inhibitor or antibody in the fertilization medium; assay type: cell-based; details: for Monospermic (number of oocytes) / Not fertilized (%) / Not fertilized (number of oocytes) / Polyspermic (number of oocytes) / Monospermic (%) / Polyspermic (%): 10 uM in culture medium at the time of insemination, 20 h p.i.; for penetration of ZP: 100 uM concentration; for fertilization of zona-enclosed (zona-intact) oocytes: agent in fertilization medium during porcine IVF
[2] = test system: zona-free oocytes / boar spermatozoa; assay: Porcine in vitro fertilization of zona-free oocytes; assay type: cell-based
Protocol: IVF was performed using zona-enclosed and zona-free (ZF or ZP−) oocytes in the presence or absence of MG132 and antibody MECL-1. Removal of the zona pellucida was accomplished by a brief (30 sec) exposure of oocytes to 0.5% pronase (Sigma, St. Louis, Mo.). Oocytes were washed extensively and ZF oocytes were allowed to recover from enzymatic treatment for 1 h prior to insemination. For IVF, ZF oocytes were co-incubated with 1×10^5 sperm/ml while zona-enclosed/zona-intact (ZI or ZP+) oocytes were treated as described above. Oocytes were fixed 12 h post insemination (p.i.) in 25% acetic acid/ethanol and stained with 1% orcein to determine the incidence of fertilization. In some experiments, oocytes were evaluated by immunofluorescence microscopy, detecting the presence of pronuclei and sperm tails in the zygotic cytoplasm.
To ascertain that the fertilizing capability of boar spermatozoa was not diminished by some non-specific effect of proteasomal inhibitors on the sperm motility or sperm ability to fuse with the oocyte plasma membrane, porcine oocytes were stripped of ZP and fertilized with acrosome-intact spermatozoa in the presence or absence of MG132 (FIG. 5 A-H). […] MG132 had no effect on the fertilization of zona-intact oocytes when either oocytes or spermatozoa were pre-incubated with it and used for insemination after extensive washing.

[3] = test system: boar spermatozoa bound to the zona pellucida; assay: Sperm-zona binding and sperm acrosomal status (DAPI, c-Yes immunofluorescence); assay type: cell-based, porcine
Protocol: To evaluate sperm-zona binding and sperm acrosomal status, zona-enclosed oocytes were fixed and the tyrosine kinase c-Yes, known to be present in the subacrosomal and outer acrosomal layer of perinuclear theca in spermatozoa with an intact acrosome (Leclerc and Goupil, 2002) was evaluated by immunofluorescence. The number of spermatozoa bound to the zona pellucida was determined after staining with DAPI. Five eggs per group were counterstained with an antibody against the acrosomal tyrosine kinase c-Yes (see Immunofluorescence) and DAPI and photographed at 60× magnification. ZP-bound acrosome-reacted and acrosome intact spermatozoa were counted and the values were expressed as a percent (%) of acrosome intact sperm/egg. Treatment results were compared by χ2 test and by general linear model procedures of SAS 8.2.
It was first observed that proteasomal inhibitors lactacystin and MG132 prevent fertilization in the course of studies aimed at confirming the proteasomal route of degradation of the paternal, sperm mitochondria inside the porcine zygote (Sutovsky et al., 2003). This study was followed up on by experiments designed to determine at which step of fertilization the inhibitors exert the block. […] The experiment was repeated four times with consistent results. […] To rule out that MG132 affects sperm viability, sperm-zona binding or acrosomal exocytosis, oocytes fertilized in the presence of 10 μM MG132 were fixed with their zona pellucida intact at 20 h p.i. Sperm heads bound to ZP were detected with DAPI and intact acrosomes were detected by antibodies against tyrosine kinase c-Yes, known to reside in the sub-acrosomal and outer acrosomal layer of perinuclear theca of acrosome-intact spermatozoa (FIG. 1 A-D). Since the spermatozoa in this experiment were pre-labeled with MitoTracker CMTM Ros, the sperm mitochondrial sheaths were rendered detectable inside the fertilized oocytes. […] However, there was no significant difference in the number of sperm bound per egg (99.3 with MG132 vs. 93.3 in control) or in the percentage of acrosome-intact, zona-bound sperm (2.01% with MG132 vs. 2.14% in control).

[4] = test system: ubiquitin-immuno-reactive ZP proteins; assay: Western blotting / Coomassie staining of ubiquitin-immuno-reactive ZP proteins after IVF; assay type: cell-based, porcine; details: MG132 in fertilization medium; 6 h p.i.
Protocol: SDS-PAGE and Western blotting were carried out as generally described in Sambrook et al. (2001). Oocytes and zygotes were removed from culture at given time points, washed repeatedly in a protein-free TALP HEPES and 350 zygotes per group were boiled for 5 min in […] of loading buffer containing Tris (50 mM), β-mercaptoethanol (5%), glycerol (10%), SDS (2%) and PMSF (100 mM). Boar sperm proteins were extracted by grinding in extraction buffer (50 mM Tris, 20 mM imidazole, 1 mM EDTA, 5 mM benzamidine HCl, 5 μg/ml leupeptine, 1 μg/ml pepstatin A, 100 mM PMSF and 0.1% SDS), centrifuged at 17000×g for 30 min. β-mercaptoethanol, glycerol, SDS were added to the supernatants, achieving the final concentrations as that of the loading buffer. Human spermatozoa were boiled with loading buffer, followed by centrifugation at 25000×g for 30 min to remove the DNA pellet. […] After incubating overnight with the primary anti-ubiquitin antibodies and then with the appropriate biotin-conjugated secondary antibodies, the signals were detected with alkaline phosphatase reaction, using Vectastain ABC-AmP kit (Vector Lab Inc., Burlingame, Calif.).
Next, it was determined whether some of the ubiquitin-immuno-reactive ZP substrates undergo degradation after sperm binding to ZP, and whether such degradation can be prevented by proteasomal inhibitors. […]

[5] = test system: bovine ova / bull spermatozoa; assay: Bovine in vitro fertilization; assay type: cell-based
Protocol: The effect of proteasomal interference on the ability of bull spermatozoa to fertilize bovine ova was analyzed in vitro. Specific, fully reversible proteasomal inhibitor MG132 (100 μM) was added to fertilization medium at the time of insemination. This allowed fertilization to occur only in 3 out of […] ova examined at 20 h post insemination (2.8% rate of fertilization; Table 2). […] Proteasomes in pronuclei were detected with an antibody against α-type and β-type proteasomal subunits. DNA was visualized with DAPI (blue).
However, several groups of ova were preincubated with 100 μM MG132 for 2 hours prior to fertilization to rule out that MG132 could block or hinder fertilization by a direct effect on zona pellucida oolemma or ooplasm, as opposed to an inhibitory effect on sperm acrosome-borne proteasomes (Sutovsky et al., 2003a, b).

[6] = test system: pronuclei of bovine ova; assay: Pronuclear development in bovine fertilized ova (immunofluorescence); assay type: cell-based
Protocol: The ubiquitin-proteasome pathway was until recently ascribed solely to cytoplasmic compartment. The presence and proteolytic activity of proteasomes in the nuclear compartment of […] was analyzed. Specific immune sera were used for the immunolocalization of proteasomal subunits LMP2, α/β and MECL1 in bovine pronuclear zygotes at various stages of pronuclear development. […] Proteasomal subunits started to infiltrate both male and female pronuclei at the initial stage of sperm nuclear decondensation. Both the male and the female pronuclei become occupied by proteasomes prior to reaching full size and apposition. High density of proteasomes was observed inside the apposed, full-sized pronuclei in both monospermic and polyspermic ova, and in cases of asynchronous pronuclear development. […] The sperm tail was visualized by the preincubation of spermatozoa prior to fertilization with a vital mitochondrial dye MitoTracker Green FM (green).
Such fertilization in presence of low concentration MG132 allowed the observation of the effects of proteasomal interference on pronuclear development. […] DNA was stained with blue fluorecent DAPI and sperm tails inside the fertilized ova were identified by the presence of green fluorescence, which accumulated in sperm mitochondrial sheath during sperm preincubation with MitoTracker GreenFM. […]

[7] = test system: bovine ova / bull spermatozoa; assay: Bovine in vitro fertilization; assay type: cell-based; details: 10 μM MG132
[8] = test system: rat ova; details: Josefsberg et al., 2000; cited from earlier work
[9] = 10 μM MG132, 20 hours post insemination
[10] = 100 μM at fertilization, 20 h post insemination
[11] = 100 μM at fertilization, 20 h post insemination, listed as MG 132
[12] = 100 μM ovum preincubation 2 h, IVF in absence of MG132

CC(C)C[C@@H](C=O)NC(=O)[C@H](CC(C)C)NC(=O)[C@H](CC(C)C)NC(=O)OCc1ccccc1 [MG132, Z-Leu-Leu-Leu-CHO] (Cbz-Leu-Leu-Leu-aldehyde)
fertilization ([1]; 10 μM MG132, fixed at 20 h p.i.): 0% | Monospermic (number of oocytes) [1]: 0 | Not fertilized (%) [1]: (100%) | Not fertilized (number of oocytes) [1]: 19 | Polyspermic (number of oocytes) [1]: 0 | penetration of ZP [1]: completely inhibited | oocytes in which fertilization was prevented ([1]; MG132 added at the time of insemination, four trials): 100% | fertilization of zona-enclosed (zona-intact) oocytes [1]: completely prevented fertilization; also recorded: inhibited in vitro fertilization | fertilization of zona-intact oocytes after pre-incubation ([1]; oocytes or spermatozoa pre-incubated with MG132, extensive washing before insemination): had no effect | fertilization of zona-free oocytes ([2]; agent present during porcine IVF): had no effect | zona-free oocytes fertilized ([2]; in the presence or absence of MG132, most polyspermic): 92-96% | gamete viability, sperm-egg binding and sperm-acrosome reaction [3, 9]: does not impair | spermatozoa with intact acrosomes on an oocyte (FIG. 1C) [3, 9]: three | number of sperm bound per egg ([3]; 10 μM MG132, 20 h p.i.): 99.3 | percentage of acrosome-intact, zona-bound sperm ([3]; 10 μM MG132, 20 h p.i.): 2.01% | sperm-oocyte binding examined by light microscopy ([3]; ZP+/MG132+ zygotes used for western blotting): not affected | degradation of ZP-contributed oocyte proteins after IVF [4]: effectively prevented | block of bovine fertilization ([5]; 100 μM MG132): completely | M-II/partheno (number of ova) ([5]; 100 μM at fertilization): 40 | Partheno (number of ova) ([5]; 100 μM at fertilization): 0 | Fertilized (%), rate of fertilization [5, 10]: 2.8% | Fertilized (number of ova) [5, 10]: 3 | Fertilized (%), rate of fertilization [5, 11]: (2.44%) | Fertilized (number of ova) [5, 11]: 1 | Fertilized (%), fertilization rate [5, 12]: 97.5% | Fertilized (number of ova) [5, 12]: 40 | M-II/partheno (number of ova) [5, 12]: 1 | Partheno (number of ova) [5, 12]: 0 | Fertilized (%), fertilization rate ([5]; 100 μM ovum preincubation 2 h, IVF in absence of MG132, listed as MG 132): (97.56%) | effect on fertilization or pronuclear development ([5]; preincubation of unfertilized ova with 100 μM MG132 for 2 h prior to IVF in absence of MG132): had no effect on fertilization or pronuclear development | anomalies in oocyte morphology ([5]; treatment during bovine IVF): Neither MG132 nor anti-MECL1 treatments were accompanied by identifiable anomalies | pronuclear development in fertilized ova ([6]; fertilized in presence of 10 μM MG132): Abnormal pronuclear development and premature chromosome condensation (PCC) was observed | import of proteasomal subunits into pronuclei ([6]; preincubation of ova with 100 μM MG132 prior to fertilization): had no effect | block of bovine fertilization [7]: inhibited the fertilization only partially | average fertilization rate ([7]; two separate trials): 38.2% | progression of meiosis and pronuclear development [8]: inhibited

CC(=O)N[C@@H](CSC(=O)[C@]1([C@@H](O)C(C)C)NC(=O)[C@H](C)[C@@H]1O)C(=O)O [lactacystin]
Monospermic (%) [1]: 65% | Monospermic (number of oocytes) [1]: 13 | Not fertilized (%) [1]: (25%) | Not fertilized (number of oocytes) [1]: 5 | Polyspermic (%) [1]: 10% | Polyspermic (number of oocytes) [1]: 2 | Monospermic (%) ([1]; listed as Lactacystin): (65%) | Polyspermic (%) ([1]; listed as Lactacystin): (10%) | fertilization at threshold concentration ([1]; 10 uM lactacystin): did not prevent fertilization | penetration of ZP [1]: completely inhibited | effect on fertilization rates ([1]; added at the time of insemination): dose-dependent effect | fertilization of zona-enclosed (zona-intact) oocytes [1]: completely prevented fertilization | block of fertilization ([1]; lactacystin at 100 μm concentration): 100%
